Here are results for two compounds from patent US7709024B2, “Sustained-release formulation and uses thereof” (Solvay Pharmaceuticals B.V., priority 2005, dated 2010).

One data set has as its system rodents. The settings on record: cited from earlier work.
Data set [1] in a line: Comparative equilibrium solubility of salts of compound 1. The settings on record: pH listed with the equilibrium solubility.
Another data set concerns the target D2 receptors (Homo sapiens, UniProt P14416). The settings on record: therapeutic models, WO 01/14330; cited from earlier work.
For another data set, the system named is 5HT reuptake. The settings on record: therapeutic models, WO 01/14330; cited from earlier work.
For data set [2] the following is noted: in vivo; cited from earlier work.

Sequence of D2 receptors (P14416 whole entry): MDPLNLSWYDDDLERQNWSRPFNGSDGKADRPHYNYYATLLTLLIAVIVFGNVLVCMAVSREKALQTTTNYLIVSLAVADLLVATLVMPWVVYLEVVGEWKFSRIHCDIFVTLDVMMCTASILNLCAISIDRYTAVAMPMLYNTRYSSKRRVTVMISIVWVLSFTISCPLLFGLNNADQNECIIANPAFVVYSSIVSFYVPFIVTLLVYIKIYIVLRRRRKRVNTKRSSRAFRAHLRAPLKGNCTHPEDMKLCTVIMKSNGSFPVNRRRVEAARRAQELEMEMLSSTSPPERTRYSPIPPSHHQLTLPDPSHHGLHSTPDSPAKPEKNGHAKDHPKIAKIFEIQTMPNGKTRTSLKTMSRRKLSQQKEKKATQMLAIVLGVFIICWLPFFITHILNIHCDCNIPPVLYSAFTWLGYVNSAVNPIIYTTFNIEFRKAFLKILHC

`CC1Oc2c(cccc2N2CCN(CCCc3c[nH]c4ccc(F)cc34)CC2)NC1=O` (stereo not drawn) [compound 1, 8-{4-[3-(5-fluoro-1H-indol-3-yl)-propyl]-piperazin-1-yl}-2-methyl-4H-benzo[1,4]oxazin-3-one]: the “propensity to induce catalepsy” value with rodents was “low propensity to induce catalepsy”. The pH in data set [1] (listed as freebase (1)) is listed as 4.72. The “antagonistic activity at D2 receptors” value at D2 receptors was “antagonistic activity at D2 receptors”. In the data set on 5HT reuptake, the “inhibitory activity against 5HT reuptake” value is recorded as “inhibitory activity against 5HT reuptake”. Further, in data set [2], the “activity in therapeutic models sensitive to clinically relevant antipsychotics, antidepressants, anxiolytics, and Parkinson's disease” value is reported as “active”.
Take `CC1Oc2c(cccc2N2CCN(CCCc3c[nH]c4ccc(F)cc34)CC2)NC1=O` (stereo not drawn) [compound 2]: the pH in data set [1] (listed as glucuronate (2)) came out at 4.25.
